In US10570129B2 (Zoetis Services LLC, priority 2015, dated 2020):

Experiments:
[1] = system: Trichostrongylus colubriformis; experiment: Jird efficacy model; assay type: in vivo; details: Trichostrongylus colubriformis, sc, 96 h, read-out: Jird % (percentage efficacy)
[2] = system: D. immitis microfilariae; experiment: Dirofilaria immitis, microfilariae (DiMF) in vitro motility assay; assay type: cell-based; details: Dirofilaria immitis, 72 h, read-out: DiMF minimally effective dose (MEC)
[3] = system: Haemonchus contortus L3; experiment: microbe, parasite or virus in culture; assay type: cell-based; details: Haemonchus contortus, 96 h, read-out: HcL3 Minimal Effective Concentration (MEC)

O=C(NCc1ccnc(Cl)c1)n1c2c(c3cc(Br)ccc31)CN(C/C=C/c1ccc(Cl)cc1)CC2 [Example 185, (E)-8-bromo-2-(3-(4-chlorophenyl)allyl)-N-((2-chloropyridin-4-yl)methyl)-1,2,3,4-tetrahydro-5H-pyrido[4,3-b]indole-5-carboxamide]
inhibition in vivo at 10 mg/kg [1]: 100% | minimal effective concentration [2]: 7.7 µM | minimal effective concentration [3]: 0.7 µM

O=C(NCc1ccnc(Cl)c1)n1c2c(c3ccc(Cl)cc31)CN(C/C=C/c1ccc(F)c(F)c1)CC2 [Example 211, (E)-7-chloro-N-((2-chloropyridin-4-yl)methyl)-2-(3-(3,4-difluorophenyl)allyl)-1,2,3,4-tetrahydro-5H-pyrido[4,3-b]indole-5-carboxamide]
inhibition in vivo at 10 mg/kg [1]: 100% | minimal effective concentration [2]: 10 µM | minimal effective concentration [3]: 1 µM

O=C(NCc1ccnc(F)c1)n1c2c(c3ccc(Cl)cc31)CN(C/C=C/c1ccc(F)c(F)c1)CC2 [Example 228, (E)-7-chloro-2-(3-(3,4-difluorophenyl)allyl)-N-((2-fluoropyridin-4-yl)methyl)-1,2,3,4-tetrahydro-5H-pyrido[4,3-b]indole-5-carboxamide]
inhibition in vivo at 10 mg/kg [1]: 98% | minimal effective concentration [2]: 3.3 µM | minimal effective concentration [3]: 1.8 µM

O=C(NCc1ccnc(F)c1)n1c2c(c3ccc(Cl)cc31)CN(C/C=C/c1ccc(Cl)cc1)CC2 [Example 229, (E)-7-chloro-2-(3-(4-chlorophenyl)allyl)-N-((2-fluoropyridin-4-yl)methyl)-1,2,3,4-tetrahydro-5H-pyrido[4,3-b]indole-5-carboxamide]
inhibition in vivo at 10 mg/kg [1]: 100% | minimal effective concentration [2]: 10 µM | minimal effective concentration [3]: 3.3 µM

O=C(NCc1ccnc(F)c1)n1c2c(c3c(Cl)cccc31)CN(C/C=C/c1ccc(Cl)cc1)CC2 [Example 230, (E)-9-chloro-2-(3-(4-chlorophenyl)allyl)-N-((2-fluoropyridin-4-yl)methyl)-1,2,3,4-tetrahydro-5H-pyrido[4,3-b]indole-5-carboxamide]
inhibition in vivo at 10 mg/kg [1]: 100% | minimal effective concentration [2]: 10 µM | minimal effective concentration [3]: 1.8 µM

O=C(NCc1ccnc(Cl)c1)n1c2c(c3cc(Cl)ccc31)CN(C/C=C/c1ccc(F)cc1F)CC2 [Example 238, (E)-8-chloro-N-((2-chloropyridin-4-yl)methyl)-2-(3-(2,4-difluorophenyl)allyl)-1,2,3,4-tetrahydro-5H-pyrido[4,3-b]indole-5-carboxamide]
inhibition in vivo at 10 mg/kg [1]: 100% | minimal effective concentration [2]: 5.7 µM | minimal effective concentration [3]: 1 µM

O=C(NCc1ccnc(Cl)c1)n1c2c(c3cc(Cl)ccc31)CN(C/C=C/c1ccc(F)c(Cl)c1)CC2 [Example 239, (E)-8-chloro-2-(3-(3-chloro-4-fluorophenyl)allyl)-N-((2-chloropyridin-4-yl)methyl)-1,2,3,4-tetrahydro-5H-pyrido[4,3-b]indole-5-carboxamide]
inhibition in vivo at 10 mg/kg [1]: 98% | minimal effective concentration [2]: 3.3 µM | minimal effective concentration [3]: 0.3 µM

O=C(NCc1ccnc(Cl)c1)n1c2c(c3cc(Cl)ccc31)CN(C/C=C/c1ccc(F)c(F)c1)CC2 [Example 240, (E)-8-chloro-N-((2-chloropyridin-4-yl)methyl)-2-(3-(3,4-difluorophenyl)allyl)-1,2,3,4-tetrahydro-5H-pyrido[4,3-b]indole-5-carboxamide]
inhibition in vivo at 10 mg/kg [1]: 98% | minimal effective concentration [2]: 3.3 µM | minimal effective concentration [3]: 0.2 µM

O=C(NCc1ccnc(Cl)c1)n1c2c(c3cc(Cl)c(Cl)cc31)CN(C/C=C/c1ccc(F)cc1)CC2 [Example 282, (E)-7,8-dichloro-N-((2-chloropyridin-4-yl)methyl)-2-(3-(4-fluorophenyl)allyl)-1,2,3,4-tetrahydro-5H-pyrido[4,3-b]indole-5-carboxamide]
inhibition in vivo at 10 mg/kg [1]: 100% | minimal effective concentration [2]: 3.3 µM | minimal effective concentration [3]: 0.3 µM

O=C(NCc1ccnc(Cl)c1)n1c2c(c3cc(F)c(Cl)cc31)CN(C/C=C/c1ccc(F)cc1)CC2 [Example 306, (E)-7-chloro-N-((2-chloropyridin-4-yl)methyl)-8-fluoro-2-(3-(4-fluorophenyl)allyl)-1,2,3,4-tetrahydro-5H-pyrido[4,3-b]indole-5-carboxamide]
inhibition in vivo at 10 mg/kg [1]: 98% | minimal effective concentration [2]: 12.7 µM | minimal effective concentration [3]: 0.5 µM

O=C(NCc1ccnc(Cl)c1)n1c2c(c3c(Cl)c(F)ccc31)CN(C/C=C/c1ccc(F)cc1)CC2 [Example 307, (E)-9-chloro-N-((2-chloropyridin-4-yl)methyl)-8-fluoro-2-(3-(4-fluorophenyl)allyl)-1,2,3,4-tetrahydro-5H-pyrido[4,3-b]indole-5-carboxamide]
inhibition in vivo at 10 mg/kg [1]: 100% | minimal effective concentration [2]: 3.3 µM | minimal effective concentration [3]: 0.5 µM

O=C(NCc1ccnc(F)c1)n1c2c(c3cc(F)c(Cl)cc31)CN(C/C=C/c1ccc(F)c(F)c1)CC2 [Example 314, (E)-7-chloro-2-(3-(3,4-difluorophenyl)allyl)-8-fluoro-N-((2-fluoropyridin-4-yl)methyl)-1,2,3,4-tetrahydro-5H-pyrido[4,3-b]indole-5-carboxamide]
inhibition in vivo at 10 mg/kg [1]: 100% | minimal effective concentration [2]: 3.3 µM | minimal effective concentration [3]: 1 µM

O=C(NCc1ccnc(F)c1)n1c2c(c3cc(F)c(Cl)cc31)CN(C/C=C/c1ccc(Cl)cc1)CC2 [Example 317, (E)-7-chloro-2-(3-(4-chlorophenyl)allyl)-8-fluoro-N-((2-fluoropyridin-4-yl)methyl)-1,2,3,4-tetrahydro-5H-pyrido[4,3-b]indole-5-carboxamide]
inhibition in vivo at 10 mg/kg [1]: 100% | minimal effective concentration [2]: 18.2 µM | minimal effective concentration [3]: 1 µM

N#Cc1ccc(/C=C/CN2CCc3c(c4c(F)cc(C(F)(F)F)cc4n3C(=O)NCc3ccnc(Cl)c3)C2)cc1 [Example 321, (E)-N-((2-chloropyridin-4-yl)methyl)-2-(3-(4-cyanophenyl)allyl)-9-fluoro-7-(trifluoromethyl)-1,2,3,4-tetrahydro-5H-pyrido[4,3-b]indole-5-carboxamide]
inhibition in vivo at 10 mg/kg [1]: 100% | minimal effective concentration [2]: 5.7 µM | minimal effective concentration [3]: 2.4 µM

N#Cc1cc(/C=C/CN2CCc3c(c4ccc(OC(F)(F)F)cc4n3C(=O)NCc3ccnc(Cl)c3)C2)ccc1F [Example 344, (E)-N-((2-chloropyridin-4-yl)methyl)-2-(3-(3-cyano-4-fluorophenyl)allyl)-7-(trifluoromethoxy)-1,2,3,4-tetrahydro-5H-pyrido[4,3-b]indole-5-carboxamide]
inhibition in vivo at 10 mg/kg [1]: 100% | minimal effective concentration [2]: 10 µM | minimal effective concentration [3]: 0.5 µM

O=C(NCc1ccnc(Cl)c1)n1c2c(c3ccc(OC(F)(F)F)cc31)CN(C/C=C/c1ccc(F)c(F)c1)CC2 [Example 349, (E)-N-((2-chloropyridin-4-yl)methyl)-2-(3-(3,4-difluorophenyl)allyl)-7-(trifluoromethoxy)-1,2,3,4-tetrahydro-5H-pyrido[4,3-b]indole-5-carboxamide]
inhibition in vivo at 10 mg/kg [1]: 99% | minimal effective concentration [2]: 10 µM | minimal effective concentration [3]: 1 µM

O=C(NCc1ccnc(Cl)c1)n1c2c(c3ccc(OC(F)(F)F)cc31)CN(C/C=C/c1ccc(F)cc1)CC2 [Example 356, (E)-N-((2-chloropyridin-4-yl)methyl)-2-(3-(4-fluorophenyl)allyl)-7-(trifluoromethoxy)-1,2,3,4-tetrahydro-5H-pyrido[4,3-b]indole-5-carboxamide]
inhibition in vivo at 10 mg/kg [1]: 100% | minimal effective concentration [2]: 3.8 µM | minimal effective concentration [3]: 0.6 µM

O=C(NCc1ccnc(F)c1)n1c2c(c3ccc(OC(F)(F)F)cc31)CN(C/C=C/c1ccc(F)cc1F)CC2 [Example 374, (E)-2-(3-(2,4-difluorophenyl)allyl)-N-((2-fluoropyridin-4-yl)methyl)-7-(trifluoromethoxy)-1,2,3,4-tetrahydro-5H-pyrido[4,3-b]indole-5-carboxamide]
inhibition in vivo at 10 mg/kg [1]: 72% | minimal effective concentration [2]: 5.7 µM | minimal effective concentration [3]: 5.7 µM

O=C(NCc1ccnc(F)c1)n1c2c(c3ccc(OC(F)(F)F)cc31)CN(C/C=C/c1cc(F)c(F)c(F)c1)CC2 [Example 377, (E)-N-((2-fluoropyridin-4-yl)methyl)-7-(trifluoromethoxy)-2-(3-(3,4,5-trifluorophenyl)allyl)-1,2,3,4-tetrahydro-5H-pyrido[4,3-b]indole-5-carboxamide]
inhibition in vivo at 10 mg/kg [1]: 99% | minimal effective concentration [2]: 5.7 µM | minimal effective concentration [3]: 0.3 µM

O=C(NCc1ccnc(F)c1)n1c2c(c3ccc(OC(F)(F)F)cc31)CN(C/C=C/c1ccc(Cl)cc1)CC2 [Example 379, (E)-2-(3-(4-chlorophenyl)allyl)-N-((2-fluoropyridin-4-yl)methyl)-7-(trifluoromethoxy)-1,2,3,4-tetrahydro-5H-pyrido[4,3-b]indole-5-carboxamide]
inhibition in vivo at 10 mg/kg [1]: 100% | minimal effective concentration [2]: 5.7 µM | minimal effective concentration [3]: 1 µM

N#Cc1ccc(/C=C/CN2CCc3c(c4cc(OC(F)(F)F)ccc4n3C(=O)NCc3ccnc(Cl)c3)C2)cc1 [Example 390, (E)-N-((2-chloropyridin-4-yl)methyl)-2-(3-(4-cyanophenyl)allyl)-8-(trifluoromethoxy)-1,2,3,4-tetrahydro-5H-pyrido[4,3-b]indole-5-carboxamide]
inhibition in vivo at 10 mg/kg [1]: 100% | minimal effective concentration [2]: 18.2 µM | minimal effective concentration [3]: 0.5 µM

O=C(NCc1ccnc(Cl)c1)n1c2c(c3cc(OC(F)(F)F)ccc31)CN(C/C=C/c1ccc(Cl)cc1)CC2 [Example 391, (E)-2-(3-(4-chlorophenyl)allyl)-N-((2-chloropyridin-4-yl)methyl)-8-(trifluoromethoxy)-1,2,3,4-tetrahydro-5H-pyrido[4,3-b]indole-5-carboxamide]
inhibition in vivo at 10 mg/kg [1]: 100% | minimal effective concentration [2]: 32.1 µM | minimal effective concentration [3]: 1 µM
